What all share (type): cell-based, human
Assay [1] has as its system OBL. The experiment in a line: Viability assay, OBL. How it is done: For assaying proliferation/viability of cells CellTiter-Glo Luminescent Cell Viability Assay (Promega, Mannheim, Germany) was used. In this assay the number of viable cells at a given time point is determined by quantification of ATP present, which serves as a measure of metabolically active cells. The assay was carried out according to manufacturer's protocol. Briefly, cells were plated in 96-well plates at 10,000 cells per well in 100 μl medium and treated with indicated amounts of GSI15, with DMSO as solvent control or left untreated. Each treatment was done in four independent replicates in different wells. 24 h and 48 h after start of treatment 30 μl per well were transferred into an opaque-walled plate and lysed using CellTiter-Glo solution. Luminescence was recorded and integrated for two seconds per well. Average values were calculated and normalized to the respective untreated sample.

Assay [2] relates to OPM-2 cells. The experiment in a line: Proliferation/viability assay (CellTiter-Glo), OPM-2. As to conditions: OPM-2, 48 h treatment. The method, then:
Human MM cell lines used were as follows: NCI-H929, OPM-2, LP-1, RPMI-8226, U266 (DSMZ, Braunschweig, Germany). Cell lines were cultured in RPMI 1640 medium (Biochrom, Berlin, Germany) supplemented with 10% heat-inactivated fetal calf serum (FCS, Gibco, Karlsruhe, Germany), 1 mM sodium pyruvate and 100 units/ml penicillin and 100 μg/ml streptomycin (Gibco). Human osteoclasts were obtained as described in the reference of Zavrski I, Krebbel H, Wildemann B, et al. Proteasome inhibitors abrogate osteoclast differentiation and osteoclast function. Biochem Biophys Res Commun. 2005; 333:200-205. Briefly, peripheral blood mononuclear cells (PBMC) were isolated from whole blood of healthy volunteers, using a Ficoll-Hypaque density gradient. The adherent fraction of the isolated mononuclear cells was cultured for 21 days in MEM medium (Sigma-Aldrich Chemie, Taufkirchen, Germany) supplemented with 10% FCS, 100 U/ml penicillin, 100 μg/ml streptomycin, 50 ng/ml M-CSF, and 25 ng/ml RANKL (osteoclastogenic medium), before coculture experiments and treatment with the inventive compounds started. […]
For assaying proliferation/viability of cells CellTiter-Glo Luminescent Cell Viability Assay (Promega, Mannheim, Germany) was used. In this assay the number of viable cells at a given time point is determined by quantification of ATP present, which serves as a measure of metabolically active cells. […]
A general note: Cellular ATP, detected with luciferase, serves as a proxy for viable cell number.

The subject of assay [3] is MM cells. Description: Cell cycle analysis (propidium iodide staining), MM cells. As to conditions: after 48 h and 72 h. How it is done: The compound according to example 1, hereinafter referred to as GSI15, (compound RH02015SC, Maybridge, Acros Organics, Geel, Belgium) was freshly dissolved as 26 mM stock solution in Dimethylsulfoxide (DMSO). Multiple myeloma therapeutics used were melphalan (marketed as Alkeran®, GlaxoSmithKline, Munich, Germany) and bortezomib (marketed as Velcade®, Janssen-Cilag, Neuss, Germany). Melphalan was freshly dissolved at 10 mg/ml in 0.9% NaCl-solution. Bortezomib was freshly dissolved at 100 ng/ml in 0.9% NaCl solution. Gamma Secretase Inhibitor (GSI) treatment for apoptosis assessment by AnnexinV/PI staining, cell cycle analysis and coculture experiments was performed in 6-well plates. GSI15 stock solution was added directly to the cell suspension. GSI treatment for assaying proliferation was performed in 96-well plates. […]
For cell cycle analysis 2×10^5 cells were spun down, medium was aspirated and cells washed with PBS. […] After 10 minutes incubation in the dark at room temperature, cells were analyzed by flow cytometry. The amount of apoptotic cells was determined by AnnexinV/propidium iodide staining using Human AnnexinV-FITC Kit (Bender Medsystems, Vienna, Austria), according to manufacturer's protocol. […] Cells were then spun down again, resuspended in binding buffer containing PI and analyzed by flow cytometry.

Each structure is given as a SMILES string.

As for `CC(C)c1ccc(S(=O)(=O)Nc2cccnc2Oc2ccc(Cl)cc2)cc1` [Example 1, N-(2-(4-chlorophenoxy)pyridin-3-yl)-4-isopropylbenzenesulfonamide], in assay [1], the viability result is “no difference between untreated and GSI15 treated”. Moreover, in assay [2], the “concentration of maximum effect on proliferation” value came to 60 µM and the proliferation entry was “dose-dependent reduction of proliferation”. The “distribution of G1-, S- and G2-phase” value in assay [3] is recorded as “remained unaltered”.

Source of the values: patent US20110251220A1, “Pharmaceutical compositions comprising gamma secretase modulators” (priority 2008, published 2011).
